The values that follow come from patent US6500819B2, “Bicyclolactam compounds, use thereof and intermediates for preparing thereof” (Taiho Pharmaceutical Company Limited, priority 1994, dated 2002).

Broadly, the ED50 is the dose at which the effect has come halfway, by size or by number of responders.

Series [1] in a line: Effect on central nervous system depressant: pentobarbital anesthetic method. As to conditions: male, ddY, mouse, in vivo. As to the method:
(§1) Effect On Central Nervous System Depressant
(§2) a. Pentobarbital Anesthetic Method
(§3) Compound 3, Compound 13, diazepam or buspirone was suspended in a 0.5 % sodium carboxymethyl cellulose solution, and the suspension was orally administered to 3- to 4-week-old male ddY mice (in groups of 5 to 10) in a volume of 10 ml/kg one hour before the start of experiment.
(§4) The test was conducted with reference to a method described in “Evaluation of Medicinal Efficacies (1), Pharmacological Test Method (1), Basic lectures on Development of Pharmaceuticals,” 144˜145(1971). More specifically, the group of mice were intraperitoneally given pentobarbital at a dose of 40 mg/kg and checked for sleeping time.

A short description of series [2]: Effect on central nervous system depressant (ethanol enhancing method), second part. As to conditions: male, ddY, mouse, in vivo. The procedure:
Effect on central nervous system depressant (Ethanol enhancing method)
Compound 1′a-1, the comparison compound, diazepam or buspirone was suspended in a 0.5% sodium carboxymethyl cellulose solution, and the suspension was orally administered to 3- to 4-week-old male ddY mice (in groups of 6) in a volume of 10 ml/kg one hour before the start of experiment.
The test was conducted with reference to a method described in Japan. J. Pharmacol., 49, 337˜349(1989). More specifically, the group of mice were intraperitoneally given 25% ethanol at a dose of 20 ml/kg and checked for the time interval between loss and recovery of the righting reflex.

A short description of series [3]: Muscle relaxant effect (traction method), second part. As to conditions: male, ddY, mouse, in vivo, po. The procedure:
(§5) Muscle Relaxant Effect (Traction Method)
(§6) Compound 1′a-1, the comparison compound, diazepam or buspirone was suspended in a 0.5% sodium carboxymethyl cellulose solution, and the suspension was orally administered to 3- to 4-week-old male ddY mice (in groups of 5) in a volume of 10 ml/kg one hour before the start of experiment.
(§7) With reference to a method described in Japan. J. Pharmacol., 49. 337˜349(1989), the foreleg of the mouse was hung on a horizontal wire, having a diameter of 1.2 mm and fixed at a level of 30 cm, three times consecutively. […] Thus, ED5 0 was determined for evaluation. […] Diazepam and buspirone were 2.2 mg/kg and 427.8 mg/kg, respectively, in ED5 0.

Series [4] relates to ddY mice. As to the kind of experiment: Anticonvulsant effect (pentylenetetrazol-induced convulsion method), second part. It counts as in vivo. To be noted: Mus musculus, 1 h, read-out: ED50, anticonvulsant effect (no death within 60 minutes). As to the method: Anticonvulsant Effect (Pentylenetetrazol-induced Convulsion Method)
Compound 1′a-1, the comparison compound, diazepam or j buspirone was suspended, in a 0.5% sodium carboxymethyl cellulose solution, and the suspension was orally administered to 3- to 4-week-old maple ddY mice (in groups of 6) in a volume of 10 ml/kg one hour before the start of experiment.
The test was conducted with reference to a method described in “Evaluation of Medicinal Efficacies (1), Pharmacological Test Method (I), Basic Lectures on Development of Pharmaceuticals,” 167˜172(1971).

Series [5] concerns Wistar rats. The series is described as follows: Anticonflict test (second part, relieving rate of anxiety). In kind it is in vivo. To be noted: oral, dose of 1.0 mg/kg. As to the method: (§8) Wistar rats (males weighing 140 to 160 g) were used for experiment in groups of 11 to 14.
No water was supplied to the rats for 48 hours before the experiment. Upon lapse of first 24 hours, each group of rats were placed into the experimental box, permitted access to water for 30 seconds and caused to recognize the metal drinking tube. Upon lapse of further 24 hours with access to water prevented, the rats were placed into the box again and permitted access to water on condition that an electric current was passed between the metal drinking tube and the grid to give an electroshock for every 20 times of water drinking behavior to measure the frequency of water drinking behavior for 3 minutes. Anxiolytic effect was evaluated as relieving rate of anxiety as calculated by the following equation.

Series [6] can be described thus: Effect on central nervous system depressant: ethanol enhancing method, first part. As to conditions: male, ddY, mouse, in vivo. The procedure:
as §1
(§9) b. Ethanol Enhancing Method
(§10) Compound 3, Compound 13, diazepam or buspirone was suspended in a 0.5 % sodium carboxymethyl cellulose solution, and the suspension was orally administered to 3- to 4-week-old male ddY mice (in groups of 6) in a volume of 10 ml/kg one hour before the start of experiment.
(§11) The test was conducted with reference to a method described in Japan. J. Pharmacol., 49, 337˜349(1989). More specifically, the group of mice were intraperitoneally given 25 % ethanol at a dose of 20 ml/kg and checked for the time interval between loss and recovery of the righting reflex.

Series [7] deals with ddY mice. The series is described as follows: Sedative effect (spontaneous locomotor activity), second part. To be noted: oral, mice, 1 h before test. The procedure: Sedative Effect (Spontaneous locomotor activity)
as §6
The test was conducted with reference to a method described in “Evaluation of Medicinal Efficacies (1), Pharmacological Test Method (I), Basic Lectures on Development of Pharmaceuticals,” 50˜54(1971). More specifically, the group of mice were given the test drug and thereafter measured the amount of spontaneous locomotor activity for 10 minutes per mouse using Animex MK-110 (Muromachi Kikai Co., Ltd.).

Series [8] deals with Wistar rats. The series is described as follows: Anticonflict test (first part, Test Example 1). In kind it is in vivo. To be noted: for Frequency of water drinking behavior: 1 h before test, value relative to control = 100; for Anxiolytic effect in the anticonflict test (in words): oral, compounds at doses of 0.001 to 1.0 mg/kg. The procedure:
as §8
The test compound, diazepam or buspirone was suspended in a 0.5 % sodiumn carboxymethyl cellulose solution, and the suspension was orally given to the animal in a volume of 5 mnl/kg one hour before the start of experiment.
With reference to a method described in “Process in Anxiolytics and Antidepresants,” ediled by Showa Ueki and Tatsuo Furukawa, Ishiyaku Shuppansha, 56-59 (1981) , the agents were tested using experimental boxes having a grid floor and a metal drinking tube in the floor. No water was supplied to the rats for 48 hours before the experiment. Upon lapse of first 24 hours, each group of rats were placed into the experimental box, permitted access to water for 30 seconds and caused to recognize the metal drinking tube. Upon lapse of further 24 hours with access to water prevented, the rats were placed into the box again and permitted access to water on condition that an electric current was passed between the metal drinking tube and the grid to give an electroshock for every 20 times of water drinking behavior to measure the frequency of water drinking behavior for 3 minutes.
The frequency is expessed by a value relative to the frequency of the control which is taken as 100.

A short description of series [9]: Sedative effect (spontaneous locomotor activity), first part. To be noted: male, ddY, mouse, in vivo, po. As to the method:
(§12) Sedative Effect (Spontaneous Locomotor Activity)
(§13) Compound 3, Compound 13, diazepam or buspirone was suspended in a 0.5 % sodium carboxymethyl cellulose solution, and the suspension was orally administered to 3- to 4-week-old male ddY mice (in groups of 5) in a volume of 10 ml/kg one hour before the start of experiment.
(§14) The test was conducted with reference to a method described in “Evaluation of Medicinal Efficacies (1), Pharmacological Test Method (1), Basic Lectures on Development of Pharmaceuticals,” 50˜54(1971). More specifically, the group of mice were given the test drug and thereafter measured the amount of spontaneous locomotor activity for 10 minutes per mouse rising Animex MK-110 (product of Muromachi Kikai Co., Ltd.).

The nature of series [10]: Muscle relaxant effect (traction method), first part. To be noted: male, ddY, mouse, in vivo, po. As to the method:
as §5, §13, §7

For series [11], the system named is Wistar rats. The series is described as follows: Elevated plus maze test. In kind it is in vivo. To be noted: 1 h before test, relative to control = 100. The procedure:
Wistar rats (males weighing 170 to 220 g) were used for experiment in groups of 4 to 9.
The test compound, diazepam or buspirone was suspended in a 0.5 %) sodium carboxymethyl cellulose solution, and the suspension was orally given to the animal in a volume of 5 ml/kg one hour before the start of experiment.
The test was conducted using an experimental device, Model BTA-2, Behavior Analysis System (product of Muromachi Kikai Co., Ltd.) with reference to a method described in Psychopharmacology, 99, 48˜53(1989). […] Each group of rats orally given the test drug were placed in the center square, and the behavior of the animals was recorded for 5 minutes using a behavior analyzer. The ratio of the number of entries into the open arm to the number of entries into all the arms was determined for evaluating the anxiolytic effect.
The ratio of entries into the open arm is expressed by a value relative to the ratio attained by the control which is taken as 100.

In series [12] the test system is ddY mice. The series is described as follows: Effect on central nervous system depressant: pentobarbital anesthetic method. As to conditions: oral, mice; pentobarbital 40 mg/kg i.p. As to the method:
as §1, §2, §3, §4

In series [13] the test system is ddY mice. As to the kind of experiment: Acute toxicity test (LD50), first part. In kind it is in vivo. To be noted: oral, male ddY mice, observed for 3 days.
For series [14], the system named is ddY mice. As to the kind of experiment: Effect on central nervous system depressant: ethanol enhancing method, first part. As to conditions: mouse, in vivo, po, 300 mg/kg. As to the method: as §1, §9, §10, §11
The test system of series [15] is ddY mice. As to the kind of experiment: Anticonvulsant effect (pentylenetetrazol-induced convulsion method), first part. As to conditions: oral, dose of 300 mg/kg. In kind it is in vivo. As to the method:
Anticonvulsant Effect (Pentylenetetrazol-Induced Convulsion Method)
as §10
The test was conducted with reference to a method described in “Evaluation of Medicinal Efficacies (1), Pharmacological Test Method (1), Basic lectures on Development of Pharmaceuticals,” 167˜172(1971).

For series [16], the system named is ddY mice. As to the kind of experiment: Sedative effect (spontaneous locomotor activity), first part. As to conditions: mouse, in vivo, po, 300 mg/kg. As to the method:
as §12, §13, §14

Series [17] concerns ddY mice. The series is described as follows: Muscle relaxant effect (traction method), first part. To be noted: mouse, in vivo, po, 300 mg/kg. As to the method:
as §5, §13, §7

Regarding `CN1C(=O)CN=C(c2ccccc2)c2cc(Cl)ccc21` [Diazepam, diazepam, reference compound], the ED50 at 1 h was 0.53 mg/kg in series [1]; 0.48 mg/kg in series [2]; 2.2 mg/kg in series [3]; 0.48 mg/kg in series [6]; 1.7 mg/kg in series [9]; 2.2 mg/kg in series [10]. The ED50 in series [4] is 0.35 mg/kg. For the same molecule, the “Anxiolytic effect in the anticonflict test (in words)” value in [5] and in series [8] was “almost ineffective” throughout. In addition, in [7], the “ED6O, sedative effect (spontaneous locomotor activity up to 50% of control)” value was found to be 1.7 mg/kg. Besides, the Frequency of water drinking behavior in series [8] (dose 1.0 mg/kg oral) worked out at 96%. Moreover, the “Ratio of entries into open arm” value in series [11] (dose 1.0 oral) turned out to be 103; in series [11] (dose 10.0 oral), 144.

As to `COc1ccc(C(=O)N2C(=O)CCC3C(O)CCC32)cc1` (stereo not drawn) [Compound 13, γ-6,c-7-Hydroxy-2-(4-methoxybenzoyl)-2-azabicyclo-[4.3.0]nonan-3-one], the “ED50, pentobarbital sleeping time in excess of twice control” value in series [12] was determined as 224.5 mg/kg. In addition, in series [13], the “Acute Toxicity LD50” value is reported as 3000< mg/kg. Further, in series [14], the “Ethanol enhancing effect (in words)” value was “no ethanol enhancing effect”. In addition, the “Anticonvulsant effect (in words)” value in series [15] is reported as “no anticonvtilsant effect”. The Frequency of water drinking behavior in [8] (dose 0.001 mg/kg oral) came to 130%; in series [8] (dose 0.01 mg/kg oral), 183%; in [8] (dose 0.1 mg/kg oral) it was 177%; in series [8] (dose 1.0 mg/kg oral), 169%. Moreover, the “Anxiolytic effect in the anticonflict test (in words)” value in series [8] is recorded as “increase in the frequency of water drinking behavior”. Also, the “Sedative effect (in words)” value in series [16] is “no sedative effect”. Moreover, the “Muscle relaxant effect (in words)” value in series [17] is “no muscle relaxant effect”.
